# Measurements: US20120095022A1, “DERIVATIVES OF 10-AMINO-1,2,3,4-TETRAHYDROPYRIDO[2,1-A]ISOINDOL-6(10BH)-ONES, METHOD FOR PREPARATION THEREOF AND THERAPEUTIC USES THEREOF” (UNIVERSITE D'ORLEANS, priority 2009, published 2012)
# How the values were obtained:
# Huh7 (liver) = assay: Cytotoxicity on human cells, automated nuclei counting: Huh7; format: cell-based; conditions: Huh-7, exposed 24 h to 48 h, 0.1 to 25 μM
# How it was run: (§1)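 Cells are seeded at 4.10^3 per well and left 24 hours to bind and grow before treatment with rising concentrations of each molecule. Medium is DMEM or RPMI supplemented with 10% fetal calf serum and antibiotics, at 37° C with 5% CO2; DMSO controls stay at or below 1%.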
# Caco (colon) = assay: Cytotoxicity on human cells, automated nuclei counting: Caco; format: cell-based; conditions: exposed 24 h to 48 h, 0.1 to 25 μM
# How it was run: as §1
# MDA-MB 231 (breast) = assay: Cytotoxicity on human cells, automated nuclei counting: MDA-MB 231; format: cell-based; conditions: MDA-MB 231 cells, exposed 24 h to 48 h, 0.1 to 25 μM
# How it was run: as §1
# HCT 116 (colon) = assay: Cytotoxicity on human cells, automated nuclei counting: HCT 116; format: cell-based; conditions: HCT 116 cells, exposed 24 h to 48 h, 0.1 to 25 μM
# How it was run: as §1
# PC3 (prostate) = assay: Cytotoxicity on human cells, automated nuclei counting: PC3; format: cell-based; conditions: PC-3, exposed 24 h to 48 h, 0.1 to 25 μM
# How it was run: as §1
# NCI (lung) = assay: Cytotoxicity on human cells, automated nuclei counting: NCI; format: cell-based; conditions: exposed 24 h to 48 h, 0.1 to 25 μM
# How it was run: as §1
# fibroblast = assay: Cytotoxicity on human cells, automated nuclei counting: fibroblast; format: cell-based; conditions: exposed 24 h to 48 h, 0.1 to 25 μM
# How it was run: as §1
# CDK1/cyclin B = CDK1/cyclin B kinase inhibition (33P-ATP, histone H1); format: biochemical, sea star; conditions: buffer C, 30° C., 15 μM ATP, read-out: IC50 μM Kinases CDK1
# Protocol: The protein kinase inhibition activities of the compounds of the invention are tested according to the following general procedure:
# Buffer C: 60 mM β-glycerophosphate, 15 mM p-nitrophenyl-phosphate, 25 mM Mops (pH 7.2), 5 mM EGTA, 15 mM mgCl2, 1 mM DTT, 1 mM sodium vanadate and 1 mM phenylphosphate.
# The controls were made with suitable dilutions of DMSO.
# ATP (3.000 Ci/mmol.; 10 mCi/mL) in a final volume of 30 μL. After 30 mins of incubation at 30° C., 25 μL of supernatant aliquots were deposited on phosphocellulose Whatman P81 paper pieces of 2.5×3 cm, and after 20 seconds, the filters were washed five times (for at least 5 minutes each time) in a solution of 10 mL of phosphoric acid/1 litre of water. The wet filters were counted in the presence of 1 mL of scintillation fluid ACS (Amersham).
# CDK5/D25 = biological target: T1, CDK5/D25 (Homo sapiens, UniProt Q00535); assay: CDK5 kinase inhibition (33P-ATP, histone H1); format: biochemical; conditions: buffer C, 30° C., 15 μM ATP, read-out: IC50 μM Kinases CDK5
# T1 construct: made in house
# How it was run: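 Kinase reactions ran in buffer C (25 mM Mops pH 7.2, 15 mM MgCl2, 1 mM DTT, phosphatase inhibitors) with [33P]-ATP for 30 min at 30° C. Phosphorylated substrate was captured on P81 phosphocellulose filters, washed in phosphoric acid and counted by scintillation.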
# GSK-3αβ = assay: GSK-3 kinase inhibition (GS-1 substrate); conditions: read-out: IC50 μM Kinases GSK3, buffer A, 30° C., 15 μM ATP
# DYRK1A = DYRK1A (Homo sapiens, UniProt Q13627); assay: DYRK1A kinase inhibition (Woodtide substrate)
# T1 sequence (Q00535 whole entry): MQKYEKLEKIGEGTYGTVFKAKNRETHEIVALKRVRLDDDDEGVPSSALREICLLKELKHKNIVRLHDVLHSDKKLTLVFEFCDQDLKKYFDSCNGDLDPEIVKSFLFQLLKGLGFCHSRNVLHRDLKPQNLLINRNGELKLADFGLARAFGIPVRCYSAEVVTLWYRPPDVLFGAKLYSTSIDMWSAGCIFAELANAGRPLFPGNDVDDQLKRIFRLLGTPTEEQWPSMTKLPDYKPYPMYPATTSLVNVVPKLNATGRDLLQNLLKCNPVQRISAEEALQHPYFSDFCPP
# T1 sequence (Q15078 99-307 partner limits assumed): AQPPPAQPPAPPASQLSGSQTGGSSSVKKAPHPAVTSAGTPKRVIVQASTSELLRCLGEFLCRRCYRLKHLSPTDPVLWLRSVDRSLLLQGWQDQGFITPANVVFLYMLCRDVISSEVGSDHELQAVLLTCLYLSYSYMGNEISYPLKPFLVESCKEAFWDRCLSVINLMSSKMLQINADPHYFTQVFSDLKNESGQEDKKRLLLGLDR
SMILES,IC50 (CDK1/cyclin B) [µM],IC50 (CDK5/D25) [µM],melting point [°C],IC50 (GSK-3αβ) [µM],IC50 (DYRK1A) [µM],IC50 (Huh7 (liver)) [µM],IC50 (Caco (colon)) [µM],IC50 (MDA-MB 231 (breast)) [µM],IC50 (HCT 116 (colon)) [µM],IC50 (PC3 (prostate)) [µM],IC50 (NCI (lung)) [µM],IC50 (fibroblast) [µM]
"O=C(Nc1cnccn1)Nc1cccc2c1C1CC3(CCN1C2=O)SCCS3 (stereo not shown) [Compound 17, 1-(6′-Oxo-3′,4′,6′,10b′-tetrahydro-1′H-spiro[[1,3]dithiolane-2,2′-pyrido[2,1-a]isoindole]-10′-yl)-3-(pyrazin-2-yl)urea]",0.13,0.15,236,0.044,> 10,0.1,0.5,0.15,0.1,0.6,0.4,0.8
"O=C(Nc1ccccn1)Nc1cccc2c1C1CC3(CCN1C2=O)SCCS3 (stereo not shown) [Compound 16, 1-(6′-oxo-3′,4′,6′,10b′-tetrahydro-1′H-spiro[[1,3]dithiolane-2,2′-pyrido[2,1-a]isoindole]-10′-yl)-3-(pyridin-2-yl)urea]",0.22,0.24,242,0.033,> 10,15,15,20,10,6,25,> 25
"O=C1c2cccc(NC(=S)Nc3cnccn3)c2C2CCCCN12 (stereo not shown) [Compound 63, 1-(6-Oxo-1,2,3,4,6,10b-hexahydropyrido[2,1-a]isoindol-10-yl)-3-(pyrazin-2-yl)thiourea]",–,26,204,8,> 100,> 25,> 25,> 25,> 25,> 25,> 25,> 25
"O=C1c2cccc(NC(=S)Nc3ncccc3Br)c2C2CC3(CCN12)SCCS3 (stereo not shown) [Compound 74, 1-(3-Bromopyridin-2-yl)-3-(6′-oxo-3′,4′,6′,10b′-tetrahydro-1′H-spiro[[1,3]dithiolane-2,2′-pyrido[2,1-a]isoindole]-10′-yl)thiourea]",–,> 10,215,3,> 10,10,20,> 25,25,15,12,25
"O=C1c2cccc(NC(=S)Nc3ncccn3)c2C2CCCCN12 (stereo not shown) [Compound 65, 1-(6-Oxo-1,2,3,4,6,10b-hexahydropyrido[2,1-a]isoindol-10-yl)-3-(pyrimidin-2-yl)thiourea]",–,> 10,212,> 10,≥ 100,> 25,20,25,> 25,> 25,> 25,> 25
"O=C(Nc1cc(-c2ccccc2)on1)Nc1cccc2c1C1CCCCN1C2=O (stereo not shown) [Compound 25, 1-(6-oxo-1,2,3,4,6,10b-hexahydropyrido[2,1-a]isoindol-10-yl)-3-(5-phenyl-isoxazol-3-yl)urea]",> 10,1.5,248,0.27,> 10,0.25,0.1,0.2,0.03,0.1,1.5,0.1
Cc1cccc(NC(=O)Nc2cccc3c2C2CC4(CCN2C3=O)SCCS4)n1 (stereo not shown) [Compound 50],–,> 10,154 to 156,2,> 10,5,10,15,12,6,15,2
COc1cc(NC(=O)Nc2cccc3c2C2CC4(CCN2C3=O)OCCO4)nc2ccccc12 (stereo not shown) [Compound 48],–,> 10,258 to 260,1,> 10,8,> 25,4,8,8,20,20
"O=C1c2cccc(NC(=S)Nc3cc[nH]n3)c2C2CCCCN12 (stereo not shown) [Compound 64, 1-(6-Oxo-1,2,3,4,6,10b-hexahydropyrido[2,1-a]isoindol-10-yl)-3-(1H-pyrazol-3-yl)thiourea]",–,56,208,16,≥ 100,8,20,25,20,6,25,> 25

# More lines, main results first:
IC50 (CDK1/cyclin B) [µM],IC50 (CDK5/D25) [µM],melting point [°C],IC50 (GSK-3αβ) [µM],IC50 (DYRK1A) [µM],SMILES,IC50 (Huh7 (liver)) [µM],IC50 (Caco (colon)) [µM],IC50 (MDA-MB 231 (breast)) [µM],IC50 (HCT 116 (colon)) [µM],IC50 (PC3 (prostate)) [µM],IC50 (NCI (lung)) [µM],IC50 (fibroblast) [µM]
25,1.6,175,0.23,–,"COc1ccc(NC(=O)Nc2cccc3c2C2CCCCN2C3=O)cn1 (stereo not shown) [Compound 96, N-(6-Methoxypyridin-3-yl)-M-(6-oxo-1,2,3,4,6,10b-hexahydropyrido[2,1-a]isoindol-10-yl)urea]",0.5,0.8,0.2,0.2,0.6,0.6,1.5
–,1.7,152,0.13,2.4,"O=C(Nc1csc(-c2ccncc2)n1)Nc1cccc2c1C1CCCCN1C2=O (stereo not shown) [Compound 37, 1-(6-Oxo-1,2,3,4,6,10b-hexahydropyrido[2,1-a]isoindol-10-yl)-3-(2-(pyridin-4-yl)thiazol-4-yl)urea]",2,1.5,1.5,0.7,1,4,3
–,0.43,178 to 180,0.76,> 10,"O=C(Nc1cscn1)Nc1cccc2c1C1CCCCN1C2=O (stereo not shown) [Compound 26, 1-(6-Oxo-1,2,3,4,6,10b-hexahydropyrido[2,1-a]isoindol-10-yl)-3-(thiazol-4-yl)urea]",1.2,0.8,0.4,0.8,2,5,4
–,0.04,218 to 220,0.043,3.4,"O=C(Nc1cccc(Br)n1)Nc1cccc2c1C1CCCCN1C2=O (stereo not shown) [Compound 19, 1-(6-Bromopyridin-2-yl)-3-(6-oxo-1,2,3,4,6,10b-hexahydropyrido[2,1-a]isoindol-10-yl)urea]",> 25,> 25,> 25,> 25,> 25,> 25,> 25
–,0.13,225,0.076,21,"O=C(Nc1ccc(Br)cn1)Nc1cccc2c1C1CCCCN1C2=O (stereo not shown) [Compound 18, 1-(5-Bromopyridin-2-yl)-3-(6-oxo-1,2,3,4,6,10b-hexahydropyrido[2,1-a]isoindol-10-yl)urea]",> 25,> 25,> 25,> 25,> 25,> 25,> 25
